Results on one compound are retold here after patent US12552757B2, “NRF2-activating compound” (SENJU PHARMACEUTICAL CO., LTD., priority 2019, dated 2026).

Data set [1] relates to NRF2. Nature of the data set: Measurement 2 of Nrf2 activating action (reporter assay) in HCE-T/ARE-Luc cells. The format is cell-based. The settings on record: 50% activation concentration, culture for 24 hours. Here is the method:
The NRF2 activating action of the compounds on cells was measured by a reporter gene assay. pGL4.37[luc2P/ARE/Hygro](Promega) was introduced into HCE-T cells using FuGENE HD. Cells that acquired drug resistance as a result of transduction were screened by culture in the presence of 50 μg/mL hygromycin, and a clone strain, HCE-T/ARE-Luc, was established.
HCE-T/ARE-Luc was cultured using DMEM/F12, 10 ng/mL hEGF, 5 μg/mL insulin, and 5% FBS. Phenol red-free DMEM/F12 was used as the assay medium.
HCE-T/ARE-Luc was seeded in a 96-well polystyrene microplate (FALCON) with 10000 cells per well. The cells were incubated in a CO: incubator at 37° C. for 16 hours to allow for cell adhesion. The test substance was dissolved in dimethylsulfoxide to prepare a solution at a concentration 1000 times higher than the test concentration. The test substance diluted 1000-fold in the assay medium was added, followed by culture for 24 hours. When measuring the activity of the reporter, the medium containing the test substance was removed, and then a new medium and a substrate of ONE-GloEX Luciferase Assay System (Promega) were added. The plate was shaken for 1 minute and then allowed to stand at ordinary temperature for 10 minutes, and luminescence was detected using the GloMax Discover System.
The 50% activation concentration of each test substance was calculated by creating a calibration curve between two concentrations across the luminescence intensity of 50%.
Background: In a reporter assay the amount or activity of a reporter protein is the signal.

Data set [2] can be described thus: Measurement of metabolic stability in human liver microsomes. The following applies: residual ratio of test compound after 30 minutes at 37° C. with human liver microsome, LC/MS/MS. The class given is in vitro ADME. The gist of the method:
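Compound was diluted to 200 nmol/L in 6.5 mmol/L NADPH solution (pre-mix levels) and incubated with an equal volume of 0.2 mg protein/mL pooled mixed-gender human liver microsomes for 30 min at 37° C, then quenched with methanol. LC/MS/MS peak areas gave % remaining versus a sample quenched before microsome addition.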

The structures appear in SMILES notation.

Take `CC[C@@H]1CN(Cc2cc(C(c3cc(F)c(C(C)=O)s3)C(C)(C)C(=O)O)ccc2C)S(=O)(=O)c2cnccc2O1` (stereo partly drawn) [Compound 49, 3-(5-acetyl-4-fluorothiophen-2-yl)-3-(3-{[(R)-4-ethyl-1,1-dioxide-3,4-dihydro-2H-pyrido[4,3-b][1,4,5]oxathiazepin-2-yl]methyl}-4-methylphenyl)-2,2-dimethylpropanoic acid]: the EC50 in data set [1] was found to be 7.76 nM. Also, in data set [2], the “Metabolic stability*” value stood at 44%.
